Assay results from patent US6872562B2, “Herbicide resistant dinitrogen fixing bacteria and method of use” (priority 2001, dated 2005).

System: TV5866RR soybean inoculated with B. japonicum (USDA 110)
Assay: Growth cabinet time course of nodule acetylene reduction activity (ARA)
Assay type: in vivo, soybean (Glycine max)
Details: 1.68 kg ha^−1 at 5, 12, and 19 DAE
Excerpt: The time course of nodule activity from 14 to 28 DAE was followed in a series of four runs of an experiment in a growth cabinet. Soybean seeds were sown in N-free potting media in pots constructed of 15-cm diameter polyvinyl chloride pipe. These pipes allow nondestructive measurement of nodule activity by the acetylene reduction assay as described by Purcell et al. (1997). Seeds were inoculated with B. japonicum (USDA 110), and pots were supplied with N-free nutrients. […] Acetylene reduction activity (ARA) was measured at 14, 21, and 28 DAE by passing a 9:1 air to acetylene mixture through the pots at 0.5 L min^−1. After 8 min., 1-mL aliquots of the effluent gas stream were collected from each pot and analyzed for ethylene by gas chromatography. Nitrogenase activity for glyphosate-treated and control plants was similar at 14 DAE, except for Run 4 when ARA was lower for glyphosate-treated plants (Table 5). ARA was 12 to 20% lower for glyphosate-treated plants at 21 DAE in three of the four runs. By 28 DAE, ARA was lower in glyphosate-treated plants only in Run 2 and was greater than control plants in Run 1.

SMILES: O=C(O)CNCP(=O)(O)O [glyphosate, N-(phosphonomethyl)glycine]
- Acetylene reduction activity (mean ± SE) (Run 1, 14 DAE): 33 ± 2 μmol C2H4 plant^−1 h^−1
- Acetylene reduction activity (mean ± SE) (Run 1, 21 DAE): 45 ± 3 μmol C2H4 plant^−1 h^−1
- Acetylene reduction activity (mean ± SE) (Run 1, 28 DAE): 76 ± 7 μmol C2H4 plant^−1 h^−1
- Acetylene reduction activity (mean ± SE) (Run 2, 14 DAE): 23 ± 3 μmol C2H4 plant^−1 h^−1
- Acetylene reduction activity (mean ± SE) (Run 2, 21 DAE): 53 ± 6 μmol C2H4 plant^−1 h^−1
- Acetylene reduction activity (mean ± SE) (Run 2, 28 DAE): 70 ± 4 μmol C2H4 plant^−1 h^−1
- Acetylene reduction activity (mean ± SE) (Run 3, 14 DAE): 57 ± 13 μmol C2H4 plant^−1 h^−1
- Acetylene reduction activity (mean ± SE) (Run 3, 21 DAE): 75 ± 9 μmol C2H4 plant^−1 h^−1
- Acetylene reduction activity (mean ± SE) (Run 3, 28 DAE): 115 ± 13 μmol C2H4 plant^−1 h^−1
- Acetylene reduction activity (mean ± SE) (Run 4, 14 DAE): 28 ± 4 μmol C2H4 plant^−1 h^−1
- Acetylene reduction activity (mean ± SE) (Run 4, 21 DAE): 56 ± 3 μmol C2H4 plant^−1 h^−1
- Acetylene reduction activity (mean ± SE) (Run 4, 28 DAE): 107 ± 14 μmol C2H4 plant^−1 h^−1
